# In PMC5365645, “Preclinical Pharmacokinetics and Pharmacodynamic Target of SCY-078, a First-in-Class Orally Active Antifungal Glucan Synthesis Inhibitor, in Murine Models of Disseminated Candidiasis” (Antimicrobial Agents and Chemotherapy, 2017):
# How the values were obtained:
# [1] = in vivo; set-up: species or system female CD-1 mice; conditions: female, CD-1, mouse
# Experimental: The pharmacokinetics and bioavailability of SCY-078 were evaluated in uninfected mouse, rat, and dog after p.o. and i.v. administration. The in vivo phases of the PK studies were performed at either […] (Waltham, MA) or MPI Research (Mattawan, MI) after an Institutional Animal Care and Use Committee (IACUC) review. […] and MPI Research are Association for Assessment and Accreditation of Laboratory Animal Care International (AAALAC)-approved facilities. […] The peak concentration (Cmax), the time to maximum concentration (Tmax), the half-life, and the AUC were determined from composite mean plasma concentration-time data for rodents and individual plasma concentration-time data for dogs. All doses and plasma concentrations of SCY-078 are presented as free base.
# [2] = Plasma protein binding by equilibrium dialysis; format: in vitro ADME; conditions: pH 7.4
# Experimental: Protein binding of [^3H]SCY-078 in mouse, rat, dog, and human plasma was determined by means of equilibrium dialysis and liquid scintillation counting. Tritium-labeled SCY-078 in ethanol was added to unlabeled SCY-078 in methanol to prepare stock solutions at 10, 100, and 1,000 μM SCY-078 with constant activity.
# Protein binding was determined against isotonic phosphate-buffered saline (pH 7.4) at 37°C for 24 h. Aliquots (10 μl) of each stock solution were added to pooled DBA mouse (n = >10 animals), Sprague-Dawley rat, beagle dog, or human plasma (1 ml) to achieve final total concentrations of 0.1, 1, and 10 μM SCY-078. The final concentration of the organic solvent was 0.9% (vol/vol). Dialysis was performed in 1-ml acrylic dialysis cells (Scienceware, South Wayne, NJ), where plasma and buffer were separated by a 12.4-kDa cutoff membrane (Sigma, St. Louis, MO). After incubation, aliquots (100 μl) of plasma and phosphate buffer were counted for radioactivity (Beckman LS6500 liquid scintillation counter), and unbound fractions of SCY-078 were estimated based on the following calculation: unbound fraction = radioactivity (dpm/0.1 ml) in buffer/total radioactivity (dpm/0.1 ml) in plasma.
# [3] = system: C. glabrata isolate CG 5592; set-up: method as in PMID 25512406; conditions: cited from earlier work
smiles,measurement,setting,value
"CC(C)[C@@H](C)[C@@]1(C)CC[C@]2(C)[C@H]3CC[C@@H]4[C@@]5(COC[C@@]4(C)[C@@H](OC[C@](C)(N)C(C)(C)C)[C@H](n4ncnc4-c4ccncc4)C5)C3=CC[C@@]2(C)[C@@H]1C(=O)O [SCY-078, (1S,4aR,6aS,7R,8R,10aR,10bR,12aR,14R,15R)-15-[[(2R)-2-amino-2,3,3-trimethylbutyl]oxy]-8-[(1R)-1,2-dimethylpropyl]-14-[5-(4-pyridinyl)-1H-1,2,4-triazol-1-yl]-1,6,6a,7,8,9,10,10a,10b,11,12,12a-dodecahydro-1,6a,8,10a-tetramethyl-4H-1,4a-propano-2H-phenanthro[1,2-c]pyran-7-carboxylic acid]",bioavailability,[1]; 6.25 mg/kg,> 41%
same,bioavailability,[1]; 12 mg/kg,> 51%
same,Dose normalized AUC0–∞ to a 1-mg/kg dose,[1]; iv,1.4 µg·h/mL
same,AUC(0-inf),"[1]; iv, 1 mg/kg",1460 ng·h/mL
same,Vd ss,"[1]; iv, 1 mg/kg",5.3 L/kg
same,clearance,"[1]; iv, 1 mg/kg",11.3 mL/min/kg
same,AUC(0-t),"[1]; iv, 1 mg/kg, AUC0–24",1390 ng·h/mL
same,Vd,"[1]; iv, 1 mg/kg, Vd ss",5.26 L/kg
same,half-life,"[1]; iv, 1 mg/kg, t1/2",~5.5 h
same,concentration at 4 h,[1]; po,1490 ± 690 ng/mL
same,AUC(0-inf),"[1]; po, 6.25 mg/kg",9560 ng·h/mL
same,Cmax,"[1]; po, 6.25 mg/kg",640 ng/mL
same,Tmax,"[1]; po, 6.25 mg/kg",4 h
same,concentration at 12 h,"[1]; po, 6.25 mg/kg",370 ± 60 ng/mL
same,AUC(0-t),"[1]; po, 6.25 mg/kg, AUC0–12",3110 ng·h/mL
same,AUC(0-t),"[1]; po, 6.25 mg/kg, AUC0–24",8360 ng·h/mL
same,Cmax,"[1]; po, 6.25 mg/kg, Cmax",390 ng/mL
same,half-life,"[1]; po, 6.25 mg/kg, t1/2",7.8 h
same,AUC0–12,"[1]; po, 12 mg/kg",15100 ng·h/mL
same,AUC0–24,"[1]; po, 12 mg/kg",22520 ng·h/mL
same,AUC(0-inf),"[1]; po, 12 mg/kg",28300 ng·h/mL
same,Cmax,"[1]; po, 12 mg/kg",1610 ng/mL
same,Tmax,"[1]; po, 12 mg/kg",6 h
same,concentration at 12 h,"[1]; po, 12 mg/kg",850 ± 220 ng/mL
same,AUC(0-t),"[1]; po, 12 mg/kg, AUC0–12",7580 ng·h/mL
same,AUC(0-t),"[1]; po, 12 mg/kg, AUC0–24",22500 ng·h/mL
same,Cmax,"[1]; po, 12 mg/kg, Cmax",900 ng/mL
same,half-life,"[1]; po, 12 mg/kg, Half-life in plasma",~8.3 h
same,half-life,"[1]; po, 12 mg/kg, t1/2",8.8 h
same,Accumulation factor for AUC,"[1]; po, 7 days",~2 fold
same,Accumulation factor for Cmax,"[1]; po, 7 days",~2 fold
same,fraction unbound at 24 h,"[2]; DBA, mouse plasma",0.002
same,"fraction unbound at 24 h, 0.1 μM","[2]; DBA, mouse plasma",0.002
same,"fraction unbound at 24 h, 1 μM","[2]; DBA, mouse plasma",0.002
same,"fraction unbound at 24 h, 10 μM","[2]; DBA, mouse plasma",0.002
same,"fraction unbound at 24 h, 0.1 μM","[2]; Sprague-Dawley, rat plasma",0.002
same,"fraction unbound at 24 h, 1 μM","[2]; Sprague-Dawley, rat plasma",0.003
same,"fraction unbound at 24 h, 10 μM","[2]; Sprague-Dawley, rat plasma",0.002
same,"fraction unbound at 24 h, 0.1 μM","[2]; beagle, dog plasma",0.004
same,"fraction unbound at 24 h, 1 μM","[2]; beagle, dog plasma",0.005
same,"fraction unbound at 24 h, 10 μM","[2]; beagle, dog plasma",0.003
same,"fraction unbound at 24 h, 0.1 μM",[2]; human plasma,0.002
same,"fraction unbound at 24 h, 1 μM",[2]; human plasma,0.003
same,"fraction unbound at 24 h, 10 μM",[2]; human plasma,0.004
same,MIC,[3],0.25 µg/mL
